Format in all cases: biochemical
One test concerns the target SIK1 (Homo sapiens, UniProt P57059). Briefly: Enzymatic activity assay SIK1, RapidFire mass spectrometry (phosphorylation of CHK-peptide). To be noted: RapidFire MS, inhibition of SIK1; read-out: SIK1 RF IC50. In outline: (§1)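 Human SIK1/2/3, 5/0.5/1.5 nM; 12.5 mM HEPES pH 7.0, 10 mM Mg acetate, 0.005% BSA. 30 min cpd pre-inc, + CHK-peptide (10 μM soln) + ATP (100 μM soln), 45 min RT. Formic acid stop; RF-MS phospho ratio; IC50.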

The target of the next test is SIK3 (Homo sapiens, UniProt Q9Y2K2). Description: Enzymatic activity assay SIK3, RapidFire mass spectrometry (phosphorylation of CHK-peptide). The conditions noted are these: RapidFire MS, inhibition of SIK3; read-out: SIK3 RF IC50. In outline:
as §1

Another test concerns the target SIK2 (Homo sapiens, UniProt Q9H0K1). Description: Enzymatic activity assay SIK2, RapidFire mass spectrometry (phosphorylation of CHK-peptide). The conditions noted are these: RapidFire MS, inhibition of SIK2; read-out: SIK2 RF IC50. Summed up: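 Read-out is the summed phospho-species fraction of CHK-peptide by RapidFire mass spectrometry, normalized between DMSO and 1 μM YKL-05-099. The reaction used 0.5 nM SIK2, 100 μM ATP and 10 μM peptide solutions in HEPES pH 7.0/10 mM magnesium acetate for 45 min at ambient temperature.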

Drawing on US20240383875A1, “Benzimidazole Pyridine Derivatives” (Hoffmann-La Roche Inc., priority 2022, published 2024), this text covers IC50 for 22 compounds.

SIK3, sequence (Q9Y2K2 whole entry): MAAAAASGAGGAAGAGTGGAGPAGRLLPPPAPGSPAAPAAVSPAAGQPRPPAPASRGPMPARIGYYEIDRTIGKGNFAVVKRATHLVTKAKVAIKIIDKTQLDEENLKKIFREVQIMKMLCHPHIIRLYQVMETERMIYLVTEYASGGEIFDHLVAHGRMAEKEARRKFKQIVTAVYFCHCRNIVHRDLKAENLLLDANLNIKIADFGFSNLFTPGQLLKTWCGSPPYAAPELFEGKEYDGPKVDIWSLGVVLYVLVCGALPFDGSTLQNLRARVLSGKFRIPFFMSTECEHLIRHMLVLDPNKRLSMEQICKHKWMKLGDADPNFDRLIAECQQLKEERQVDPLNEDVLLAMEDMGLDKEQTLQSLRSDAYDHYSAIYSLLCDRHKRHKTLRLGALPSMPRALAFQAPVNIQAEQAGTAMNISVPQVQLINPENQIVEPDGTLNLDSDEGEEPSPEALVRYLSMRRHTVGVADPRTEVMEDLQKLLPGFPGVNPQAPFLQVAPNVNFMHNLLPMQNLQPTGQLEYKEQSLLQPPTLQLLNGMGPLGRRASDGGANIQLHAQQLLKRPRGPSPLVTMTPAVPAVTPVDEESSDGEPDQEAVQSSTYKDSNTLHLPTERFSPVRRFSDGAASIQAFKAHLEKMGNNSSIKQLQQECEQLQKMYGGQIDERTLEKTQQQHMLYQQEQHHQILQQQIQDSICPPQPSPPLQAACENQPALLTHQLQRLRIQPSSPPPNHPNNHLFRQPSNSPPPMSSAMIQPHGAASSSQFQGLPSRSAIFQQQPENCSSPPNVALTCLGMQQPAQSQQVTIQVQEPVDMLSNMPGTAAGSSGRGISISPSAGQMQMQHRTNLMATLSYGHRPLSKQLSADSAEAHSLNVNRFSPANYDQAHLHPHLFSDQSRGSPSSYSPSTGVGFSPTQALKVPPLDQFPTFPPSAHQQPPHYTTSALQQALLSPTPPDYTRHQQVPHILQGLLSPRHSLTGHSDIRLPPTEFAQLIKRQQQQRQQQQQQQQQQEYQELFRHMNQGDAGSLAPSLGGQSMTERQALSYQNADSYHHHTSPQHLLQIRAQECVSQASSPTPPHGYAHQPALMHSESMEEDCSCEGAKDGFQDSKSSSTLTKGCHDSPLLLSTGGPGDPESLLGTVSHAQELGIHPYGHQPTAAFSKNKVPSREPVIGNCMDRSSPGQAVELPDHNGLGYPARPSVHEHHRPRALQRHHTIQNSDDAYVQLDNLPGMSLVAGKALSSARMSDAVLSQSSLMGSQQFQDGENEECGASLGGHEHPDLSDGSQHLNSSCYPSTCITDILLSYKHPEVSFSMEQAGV
SIK2, sequence (Q9H0K1 whole entry): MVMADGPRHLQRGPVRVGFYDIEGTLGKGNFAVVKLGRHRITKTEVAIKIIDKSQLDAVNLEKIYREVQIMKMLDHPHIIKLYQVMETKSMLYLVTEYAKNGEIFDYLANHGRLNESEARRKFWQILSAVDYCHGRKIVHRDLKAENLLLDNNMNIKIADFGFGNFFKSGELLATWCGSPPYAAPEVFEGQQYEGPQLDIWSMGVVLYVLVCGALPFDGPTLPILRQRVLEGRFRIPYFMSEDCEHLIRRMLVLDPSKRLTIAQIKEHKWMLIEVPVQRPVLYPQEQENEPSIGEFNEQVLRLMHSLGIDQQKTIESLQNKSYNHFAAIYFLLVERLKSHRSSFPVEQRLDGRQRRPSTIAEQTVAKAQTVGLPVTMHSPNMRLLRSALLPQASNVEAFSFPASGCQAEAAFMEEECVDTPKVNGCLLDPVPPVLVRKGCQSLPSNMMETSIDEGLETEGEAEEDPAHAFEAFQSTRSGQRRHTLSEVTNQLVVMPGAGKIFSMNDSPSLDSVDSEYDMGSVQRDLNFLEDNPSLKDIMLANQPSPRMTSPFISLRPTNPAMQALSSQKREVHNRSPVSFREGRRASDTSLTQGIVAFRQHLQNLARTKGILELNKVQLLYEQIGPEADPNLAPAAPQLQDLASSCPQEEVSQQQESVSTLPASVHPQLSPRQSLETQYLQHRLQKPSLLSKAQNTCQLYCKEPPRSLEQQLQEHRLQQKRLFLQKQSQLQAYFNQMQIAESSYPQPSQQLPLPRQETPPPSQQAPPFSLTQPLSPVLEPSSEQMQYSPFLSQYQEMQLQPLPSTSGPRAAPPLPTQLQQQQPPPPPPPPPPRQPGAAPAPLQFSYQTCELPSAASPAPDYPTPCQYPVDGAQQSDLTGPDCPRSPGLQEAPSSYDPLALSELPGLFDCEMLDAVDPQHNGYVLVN
SIK1, sequence (P57059 whole entry): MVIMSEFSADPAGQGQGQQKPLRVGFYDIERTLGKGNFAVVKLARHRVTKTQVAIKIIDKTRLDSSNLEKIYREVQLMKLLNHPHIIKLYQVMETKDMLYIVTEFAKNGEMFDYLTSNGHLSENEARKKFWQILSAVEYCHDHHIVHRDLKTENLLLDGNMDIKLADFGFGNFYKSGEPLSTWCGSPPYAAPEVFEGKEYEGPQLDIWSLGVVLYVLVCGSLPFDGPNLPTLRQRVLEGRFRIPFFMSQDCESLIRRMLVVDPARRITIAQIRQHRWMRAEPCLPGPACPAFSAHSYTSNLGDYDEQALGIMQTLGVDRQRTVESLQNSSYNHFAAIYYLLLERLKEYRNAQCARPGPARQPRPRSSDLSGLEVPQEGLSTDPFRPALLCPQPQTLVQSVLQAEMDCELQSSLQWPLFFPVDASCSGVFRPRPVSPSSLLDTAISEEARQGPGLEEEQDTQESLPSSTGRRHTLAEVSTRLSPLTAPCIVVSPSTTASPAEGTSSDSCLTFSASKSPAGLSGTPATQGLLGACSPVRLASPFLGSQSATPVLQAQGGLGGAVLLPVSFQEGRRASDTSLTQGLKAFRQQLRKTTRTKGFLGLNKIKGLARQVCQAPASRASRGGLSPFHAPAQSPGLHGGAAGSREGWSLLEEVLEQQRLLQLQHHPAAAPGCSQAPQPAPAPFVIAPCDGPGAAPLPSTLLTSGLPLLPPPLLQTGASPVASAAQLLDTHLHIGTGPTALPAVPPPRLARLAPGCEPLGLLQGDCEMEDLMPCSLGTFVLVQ

As usually defined, the IC50 is the point on the concentration scale where inhibition reaches its midpoint. With `Cc1ccc(Nc2ccc3c(c2)ncn3-c2ccc(C(C)O)c(-n3nc(C(F)(F)F)c4c3CCN(C3COC3)C4)n2)nn1` (stereo not drawn) [Example 177, 1-[6-[5-[(6-Methylpyridazin-3-yl)amino]benzimidazol-1-yl]-2-[5-(oxetan-3-yl)-3-(trifluoromethyl)-6,7-dihydro-4H-pyrazolo[4,3-c]pyridin-1-yl]-3-pyridyl]ethanol], the values for the concentration for half-maximal inhibition (IC50) on SIK1, on SIK3 and at SIK2 were 0.253 µM, 0.0031 µM and 0.0028 µM, respectively.
Turning to `Cc1ccc(Nc2ccc3ncn(-c4ccc(C(C)O)c(-n5cc(C#N)c(C)n5)n4)c3c2)nn1` (stereo not drawn) [Example 178, 1-[3-(1-Hydroxyethyl)-6-[6-[(6-methylpyridazin-3-yl)amino]benzimidazol-1-yl]-2-pyridyl]-3-methyl-pyrazole-4-carbonitrile], the IC50 on SIK1 was 27 µM; on SIK3, 10 µM; at SIK2, 6.34 µM.
On the same counts, the results for `CNc1ncccc1-c1nc(-n2cnc3cc(Nc4ccc(C)nn4)ccc32)ccc1C(C)O` (stereo not drawn) [Example 179, 1-[2-[2-(Methylamino)-3-pyridyl]-6-[5-[(6-methylpyridazin-3-yl)amino]benzimidazol-1-yl]-3-pyridyl]ethanol; formic acid] are greater than 30 µM, 0.0743 µM and 0.414 µM.
Turning to `Cc1ccc(Nc2ccc3c(c2)ncn3-c2ccc(C(C)O)c(-n3cc(C#N)c(C)n3)n2)nn1` (stereo not drawn) [Example 182, 1-[3-(1-Hydroxyethyl)-6-[5-[(6-methylpyridazin-3-yl)amino]benzimidazol-1-yl]-2-pyridyl]-3-methyl-pyrazole-4-carbonitrile], the results for the IC50 at SIK1, on SIK3 and at SIK2 were 15.4 µM, 0.0257 µM and 0.0889 µM, respectively.
For the compound `Cc1ccc(Nc2ccc3c(c2)ncn3-c2ccc(C(C)O)c(N3CC(C)(C#N)C3)n2)nn1` (stereo not drawn) [Example 183, 1-[3-(1-Hydroxyethyl)-6-[5-[(6-methylpyridazin-3-yl)amino]benzimidazol-1-yl]-2-pyridyl]-3-methyl-azetidine-3-carbonitrile], the half-inhibitory concentration (IC50) amounted to 2.83 µM at SIK1, 0.0175 µM on SIK3 and 0.0945 µM on SIK2.
Regarding `Cc1ccc(Nc2ccc3ncn(-c4ccc(C(C)O)c(N5CC(C)(C#N)C5)n4)c3c2)nn1` (stereo not drawn) [Example 184, 1-[3-(1-Hydroxyethyl)-6-[6-[(6-methylpyridazin-3-yl)amino]benzimidazol-1-yl]-2-pyridyl]-3-methyl-azetidine-3-carbonitrile], the values for the IC50 on SIK1, on SIK3 and at SIK2 were 1.99 µM, 1.9 µM and 2.5 µM, respectively.
Turning to `COc1cc2c(cc1Nc1ccc(C)nn1)ncn2-c1ccc(C(C)O)c(-n2nc(C#N)cc2C)n1` (stereo not drawn) [Example 185, 1-[3-(1-Hydroxyethyl)-6-[6-methoxy-5-[(6-methylpyridazin-3-yl)amino]benzimidazol-1-yl]-2-pyridyl]-5-methyl-pyrazole-3-carbonitrile], the IC50 was 0.006 µM on SIK1, 0.0007 µM at SIK3 and 0.0003 µM at SIK2.
`COCCOc1cc2c(cc1Nc1ccc(C)nn1)ncn2-c1ccc(C(C)O)c(-n2nc(C#N)cc2C)n1` (stereo not drawn) [Example 187, 1-[3-(1-Hydroxyethyl)-6-[6-(2-methoxyethoxy)-5-[(6-methylpyridazin-3-yl)amino]benzimidazol-1-yl]-2-pyridyl]-5-methyl-pyrazole-3-carbonitrile]: the figures for the IC50 on SIK1, at SIK3 and at SIK2 were 0.07 µM, 0.0056 µM and 0.002 µM, respectively.
On to `Cc1ccc(Nc2cc3ncn(-c4ccc(C(C)O)c(-n5nc(C#N)cc5C)n4)c3cc2OCCN(C)C)nn1` (stereo not drawn) [Example 189, 1-[6-[6-[2-(Dimethylamino)ethoxy]-5-[(6-methylpyridazin-3-yl)amino]benzimidazol-1-yl]-3-(1-hydroxyethyl)-2-pyridyl]-5-methyl-pyrazole-3-carbonitrile], for which the IC50 at SIK1 is 0.186 µM; at SIK3, 0.0047 µM; at SIK2, 0.0039 µM.
`Cc1cc(C#N)nn1-c1nc(-n2cnc3cc(Br)c(N4CCN(C5COC5)CC4)cc32)ccc1C(C)O` (stereo not drawn) [Example 190, 1-[6-[5-Bromo-6-[4-(oxetan-3-yl)piperazino]benzimidazol-1-yl]-3-(1-hydroxyethyl)-2-pyridyl]-5-methyl-pyrazole-3-carbonitrile]: the IC50 came to 0.084 µM at SIK1, 0.382 µM at SIK3 and 0.0508 µM at SIK2.
The corresponding values for `COC1CN(C(=O)c2ccc(Nc3ccc4c(c3)ncn4-c3ccc(C(C)O)c(-n4nc(C#N)cc4C)n3)nn2)C1` (stereo not drawn) [Example 191, 1-[3-(1-Hydroxyethyl)-6-[5-[[6-(3-methoxyazetidine-1-carbonyl)pyridazin-3-yl]amino]benzimidazol-1-yl]-2-pyridyl]-5-methyl-pyrazole-3-carbonitrile] are 0.053 µM, 0.0022 µM and 0.0027 µM.
For `Cc1ccc(Nc2cc3ncn(-c4ccc(C(C)O)c(-n5nc(C#N)cc5C)n4)c3cc2OC2CCNC2)nn1` (stereo not drawn) [Example 192, 1-[3-(1-Hydroxyethyl)-6-[5-[(6-methylpyridazin-3-yl)amino]-6-pyrrolidin-3-yloxy-benzimidazol-1-yl]-2-pyridyl]-5-methyl-pyrazole-3-carbonitrile], the figures for the IC50 at SIK1, at SIK3 and at SIK2 were 0.196 µM, 0.004 µM and 0.0031 µM, respectively.
Take `COCCOc1ccc(Nc2ccc3c(c2)ncn3-c2ccc(C(C)O)c(-n3nc(C#N)cc3C)n2)nn1` (stereo not drawn) [Example 193, 1-[3-(1-Hydroxyethyl)-6-[5-[[6-(2-methoxyethoxy)pyridazin-3-yl]amino]benzimidazol-1-yl]-2-pyridyl]-5-methyl-pyrazole-3-carbonitrile]: the values for the IC50 at SIK1, at SIK3 and at SIK2 were 0.068 µM, 0.0019 µM and 0.0032 µM, respectively.
Consider `Cc1ccc(Nc2ccc3c(c2)ncn3-c2ccc(C(C)O)c(-c3cccc4[nH]nnc34)n2)nn1` (stereo not drawn) [Example 194, 1-[2-(1H-Benzotriazol-4-yl)-6-[5-[(6-methylpyridazin-3-yl)amino]benzimidazol-1-yl]-3-pyridyl]ethanol], for which the IC50 came out at 3.33 µM on SIK1, 0.0295 µM at SIK3 and 0.288 µM on SIK2.
With `Cc1cc(C#N)nn1-c1nc(-n2cnc3cc(Nc4ccc(OCC(F)F)nn4)ccc32)ccc1C(C)O` (stereo not drawn) [Example 195, 1-[6-[5-[[6-(2,2-Difluoroethoxy)pyridazin-3-yl]amino]benzimidazol-1-yl]-3-(1-hydroxyethyl)-2-pyridyl]-5-methyl-pyrazole-3-carbonitrile], the half-inhibitory concentration (IC50) at SIK1 came to 0.02 µM; at SIK3, 0.0014 µM; at SIK2, 0.0031 µM.
The corresponding values for `Cc1cc(C#N)nn1-c1nc(-n2cnc3cc(Nc4ccc(OC(F)F)nn4)ccc32)ccc1C(C)O` (stereo not drawn) [Example 197, 1-[6-[5-[[6-(Difluoromethoxy)pyridazin-3-yl]amino]benzimidazol-1-yl]-3-(1-hydroxyethyl)-2-pyridyl]-5-methyl-pyrazole-3-carbonitrile] are 0.015 µM, 0.0009 µM and 0.0023 µM.
For the compound `Cc1ccc(Nc2ccc3c(c2)ncn3-c2ccc(C(O)C(F)F)c(-n3nc(C#N)cc3C)n2)nn1` (stereo not drawn) [Example 198, 1-[3-(2,2-Difluoro-1-hydroxy-ethyl)-6-[5-[(6-methylpyridazin-3-yl)amino]benzimidazol-1-yl]-2-pyridyl]-5-methyl-pyrazole-3-carbonitrile], the IC50 is 0.391 µM on SIK1, 0.0018 µM at SIK3 and 0.007 µM at SIK2.
`Cc1ccc(Nc2ccc3ncn(-c4ccc(C(O)C(F)F)c(-n5nc(C#N)cc5C)n4)c3c2)nn1` (stereo not drawn) [Example 199, 1-[3-(2,2-Difluoro-1-hydroxy-ethyl)-6-[6-[(6-methylpyridazin-3-yl)amino]benzimidazol-1-yl]-2-pyridyl]-5-methyl-pyrazole-3-carbonitrile]: the IC50 at SIK1 amounted to 0.245 µM; on SIK3, 0.371 µM; at SIK2 it was 0.171 µM.
The corresponding values for `Cc1cc(C#N)nn1-c1nc(-n2cnc3cc(CN4CCCS4(=O)=O)ccc32)ccc1C(C)O` (stereo not drawn) [Example 201, 1-[6-[5-[(1,1-Dioxo-1,2-thiazolidin-2-yl)methyl]benzimidazol-1-yl]-3-(1-hydroxyethyl)-2-pyridyl]-5-methyl-pyrazole-3-carbonitrile] are 0.111 µM, 0.321 µM and 0.0621 µM.
With `Cc1cc(C#N)nn1-c1nc(-n2cnc3ccc(CN4CCCS4(=O)=O)cc32)ccc1C(C)O` (stereo not drawn) [Example 202, 1-[6-[6-[(1,1-Dioxo-1,2-thiazolidin-2-yl)methyl]benzimidazol-1-yl]-3-(1-hydroxyethyl)-2-pyridyl]-5-methyl-pyrazole-3-carbonitrile], the IC50 stood at 1.02 µM at SIK1, 0.205 µM on SIK3 and 0.5 µM on SIK2.
With `COc1c(O)cccc1-c1nc(-n2cnc3cc(Nc4ccc(C)nn4)ccc32)ccc1C(C)O` (stereo not drawn) [Example 203, 3-[3-(1-Hydroxyethyl)-6-[5-[(6-methylpyridazin-3-yl)amino]benzimidazol-1-yl]-2-pyridyl]-2-methoxy-phenol; formic acid], the results for the IC50 at SIK1, at SIK3 and at SIK2 were 14.4 µM, 0.0554 µM and 0.52 µM, respectively.
`Cc1ccc(Nc2ccc3c(c2)ncn3-c2ccc(C(C)O)c(-c3ccoc3C#N)n2)nn1` (stereo not drawn) [Example 204, 3-[3-(1-Hydroxyethyl)-6-[5-[(6-methylpyridazin-3-yl)amino]benzimidazol-1-yl]-2-pyridyl]furan-2-carbonitrile]: the IC50 on SIK1 was found to be 9.95 µM; at SIK3, 0.0344 µM; on SIK2, 0.141 µM.
